Data set [1] is described as follows: in vitro. The settings on record: for Jmax: 80% saturated solution in PBS, 6 h; for Jmax / Papp at 6 h / recovery: mean, n = 5–6; for Papp at 6 h / recovery: female, Holstein Friesian, bovine; for Papp at 6 h: 10^-6 Papp. The method, then:
The skin was obtained from bovine udders, all of which were harvested from Holstein Friesian cows which died at a slaughterhouse for food production, and the cleaned skin samples were stored at - 20°C until use. After thawing at room temperature split skin samples with a thickness of 600 μm ± 50 μm were produced using an electrical microtome (Zimmer, Eschbach, Germany), whereby damaged skin samples were excluded from the study.
Prior to the experiment split skin samples with appropriate size of 2 x 2 cm were incubated in phosphate buffered saline (PBS) for 30 minutes. They were placed on a styropor panel and fixed with needles beyond the subsequent diffusion area of the skin samples before the microneedle rollers were rolled in four axes radial over the skin surface (Figure 1 C).
The diffusion experiments were performed in Franz-type diffusion cells obtained from PermeGear (Riegelsville, PA, USA) with a receptor chamber of approximately 12 ml and a diffusion area of approximately 1.77 cm². Sonicated PBS was used as receptor fluid. […] The donor chambers were covered with parafilm® (American Can Company, Baltimore, USA) and were checked for precipitation of the compounds during the whole experiment. Aliquots were taken from the receptor fluid and replaced by the same amount of fresh PBS at 0, 0.5, 1, 2, 4, and 6 hours. Each treatment (untreated control, 200 μm microneedle, and 300 μm microneedle) was performed in duplicate per animal (n = 6).
The receptor fluid samples (100 μl) were analysed by high-performance liquid-chromatography, the methodology of which has derived from recent studies. […] The separation took place on a reversed phase column (LiChroCART 125–4, LiChrospher 100 RP-18e, 5 μm (Merck, Darmstadt, Germany)), which was maintained at 40°C.
The linear part of the gradient of the permeation curve (time vs. concentration in the receptor fluid) represents the maximum flux Jmax (μg/cm²/h) and is employed to calculate the apparent permeability coefficient Papp (cm/s) according to Niedorf et al. 2008 [23]. Differences between control samples and pretreated skin samples were evaluated by Friedman test followed by Dunn´s multiple comparison test (GraphPad Prism 4.01 (GraphPad Software Inc., San Diego, USA). A 0.05 significance level was adopted.

On the set-up of data set [2]: method as in earlier work. The following applies: cited from earlier work.
Details of data set [3]: method as in PMID 20624460. The following applies: microneedle treated skin, in vitro; cited from earlier work.
The mark [4] stands for this setting: 200 μm microneedle pretreatment.
Where [5] appears, read: 300 μm microneedle pretreatment.
Where [6] appears, read: 300 μm microneedle pretreatment, * = p<0.05 versus control.

Like-named read-outs stand apart in the source and are kept apart here.

We go through 4 molecules from article PMC3506268, “Microneedle pretreatment enhances the percutaneous permeation of hydrophilic compounds with high melting points” (BMC Pharmacology & Toxicology, 2012).

With `O=C(O)Cc1ccccc1Nc1c(Cl)cccc1Cl` [Diclofenac], the Jmax in data set [1] (setting [4]) is 8.75 μg/cm²/h; in data set [1] (setting [5]), 11.55 μg/cm²/h; in data set [1] (untreated control skin) it was 1.72 μg/cm²/h. Moreover, the “Increase of maximum flux (Jmax) and Papp-value versus untreated skin” value (from here on “Increase of maximum flux”) in data set [1] (setting [5]) was at most 7 fold. For the same molecule, the Papp (in general, the rate of passage across a membrane or cell layer, normalised by area and donor concentration) at 6 h in data set [1] (setting [6]) is 1.24 ×10⁻⁶ cm/s; in data set [1] (untreated control skin) it was 0.18 ×10⁻⁶ cm/s. For the same molecule, the recovery in data set [1] (setting [4]) came to 3.17%; in data set [1] (setting [5]) it was 3.54%; in data set [1] (untreated control skin), 0.49%. The logKo/w in data set [2] was 0.7; in data set [2] (listed as diclofenac), below 1.

As to `CC(C)Cc1ccc(C(C)C(=O)O)cc1` (stereo not drawn) [Ibuprofen, ibuprofen], in data set [1] (setting [4]), the “Higher flux through pretreated skin compared to untreated skin” value is reported as “twofold” and the recovery was 11.2%. For the same molecule, in data set [1] (setting [5]), the “Higher flux through pretreated skin compared to untreated skin” value is “threefold”; the “Increase of maximum flux” value is “up to 3 fold”; the recovery is 17.8%. Further, the recovery in data set [1] (untreated control skin) was determined as 6.76%.

Consider `CC(C(=O)O)c1cccc(C(=O)c2ccccc2)c1` (stereo not drawn) [Ketoprofen, ketoprofen], for which, in data set [1] (setting [4]), the “Higher flux through pretreated skin compared to untreated skin” value is “twofold”, the Jmax stood at 2.36 μg/cm²/h, the Papp at 6 h came to 0.28 ×10⁻⁶ cm/s and the recovery came to 0.76%. For the same molecule, in data set [1] (setting [5]), the “Higher flux through pretreated skin compared to untreated skin” value is on record as “threefold”; the “Increase of maximum flux” value is “up to 3 fold”; the Jmax stood at 2.99 μg/cm²/h; the recovery is 0.96%. In addition, the Papp at 6 h in data set [1] (setting [6]) was found to be 0.35 ×10⁻⁶ cm/s. In data set [1] (untreated control skin), this molecule showed a Papp at 6 h of 0.12 ×10⁻⁶ cm/s, a recovery of 0.3% and a Jmax of 1.03 μg/cm²/h.

On to `CC(=O)Oc1ccccc1C(=O)O` [acetylsalicylic acid], for which the Permeation enhancement entry in data set [3] is “up to 2 times”.
